Test results published in patent US10512667B2, “Compositions and methods for treating conditions related to adrenocortical activity and/or excessive steroid production” (The Regents of the University of Michigan, priority 2017, dated 2019).
Entries after “also recorded” stand apart in the source; their conditions may differ.

Legend:
H295R cells [1] = experiment: Cellular ATP level (CellTiter-Glo); conditions: for ATP level in combination with ATR-101 versus separately: compound together with ATR-101 at concentrations not cytotoxic separately; for ATP depletion at high concentrations of inhibitors of steroidogenesis: alone and in combination with ATR-101, 4 h; for ATP level, compound alone: serum-free medium;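 for all read-outs here: ATP quantified by luminescence after lysing the cells in CellTiter-Glo reagent, with compound exposure at 37 °C under 5% CO2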
Description: The ATP levels of cells were measured by lysis in CellTiter-Glo reagent (Promega), and measurement of the luminescence.
After 48 h, 20-80 μl of medium was removed from each well and replaced with 20 μl of each compound diluted to 6× of the final concentration in the culture medium to produce a final volume of 120 μl. The cells were incubated at 37 C in 5% CO2 atmosphere for a time ranging from 15 min to 24 h. The medium was removed and immediately replaced with 50 μl of CellTiter-Glo luminescence cell viability assay reagent (Promega). The cells were lysed by agitation at room temperature for 20 min in the dark. The luminescence was measured using a SpectraMax M5 microplate reader (Molecular Devices) with a 0.5 s acquisition time. The luminescence (RLU) values for control cells ranged from 5000 to 20000 RLU in all experiments, and were scaled by a factor of 0.001 to plot all graphs.

H295R cells [2] = experiment: Visualization of cholesterol levels by filipin III binding; assay type: cell-based; conditions: for cholesterol level (filipin III binding), compound alone: serum-free medium containing apoA-I, 4 h
Description: The cells were seeded in 96-well ibiTreat μ-Plates and allowed to adhere for 48 h prior to the start of each experiment. Cholesterol was detected in fixed cells by incubating with 100 μg/ml filipin III at 37 C for 2 h. […] Images were captured using either a 4× or a 60× objective. Cholesterol esterification was visualized by culturing the cells with 1 μM NBD-cholesterol for 2 h following incubation with the indicated compounds. […] Images were captured using either a 20× or a 60× objective.
The medium was removed and immediately replaced with 100 μl of 4% paraformaldehyde and the cells were fixed at room temperature for 20 min. The cells were washed twice with 200 μl PBS. […] The fixed cells were incubated with filipin III at 37 C in the dark for 2 h.

MDR1 = target: T1, MDR1 (Homo sapiens, UniProt P08183); experiment: Doxorubicin accumulation / clearance in H295R cells; assay type: cell-based; conditions: 25 μM doxorubicin, 20 μM compound, 2 h
T1 construct: measured the accumulation of doxorubicin in H295R cells; endogenous in cells; host or cells: H295R adrenocortical carcinoma cells
Description: The medium was removed and immediately replaced with 100 μl of fresh media and intracellular doxorubicin fluorescence was visualized by fluorescence microscopy using a 20× objective.

H295R cells [3] = experiment: Cholesterol efflux into serum-free medium with apoA1; assay type: cell-based; conditions: serum-free medium containing apoA-I
Description: Cholesterol efflux was measured by replacing the culture medium with serum-free medium supplemented with 5 μg/ml apoA1 (Sigma) and the indicated compounds. After the indicated time, the serum-free medium was collected, and the cholesterol concentration was measured using the fluorometric enzyme-linked assay (Cayman Chemical).
After 48 h, the medium was removed and replaced with 50 μl serum-free medium supplemented with 5 μg/mL apoA1. After the indicated time, the supernatant containing the effluxed cholesterol, was transferred to a new 96-well plate. A cholesterol detection reagent (Cayman Chemical) consisting of cholesterol assay buffer, cholesterol assay detector (10-acetyl-3,7-dihydroxyphenoxazine [ADHP]), horseradish peroxidase, cholesterol oxidase, and cholesterol esterase was added, and the reactions were incubated for 30 min at 37 C. The fluorescence intensities were measured using ex. […] 590 nm. The cholesterol concentrations were calculated by interpolation between the values produced by cholesterol standards that were analyzed in parallel.

H295R cells [4] = experiment: Cortisol secretion (indirect ELISA); assay type: cell-based
Description: Cortisol secretion was measured by replacing the culture medium with fresh medium containing the indicated compounds. The medium was collected at the indicated times. The cortisol concentration in the medium was measured using indirect ELISA (Arbor Assays).
After 48 h, the medium was removed and replaced with 50 μl of fresh medium. After the indicated incubation time, aliquots of the supernatant ranging from 0.5 to 10 μl were diluted in 50 μl of medium were used to measure the amount of cortisol secreted. Cortisol detection and quantification were performed by indirect ELISA according to the manufacturer's protocol (Arbor Assays #K003).

[5] = H295R cells cultured with the compound together with ATR-101, 4 h
[6] = H295R cells, serum-free medium containing apoA-I, together with ATR-101

Compound: CCN(CC)CCO[C@H]1CC[C@@]2(C)C(=CC[C@@H]3[C@@H]2CC[C@]2(C)C(=O)CC[C@@H]32)C1 [U18666A, 3β-(2-diethylaminoethoxy)-5-androsten-17-one]
- ATP level in combination with ATR-101 versus separately (H295R cells [1]; H295R cells, 4 h): caused ATP depletion at concentrations that had no detectable effect on the ATP level separately
- cholesterol accumulation in combination with ATR-101 versus separately (H295R cells [2]; H295R cells, 20 μM ATR-101 with 5 μM benzamil (1 h) or 8 μM U18666A (serum-free)): greater than additive increase in cholesterol accumulation

Compound: CC(=O)O[C@H]1CC[C@@]2(C)C(=CC[C@@H]3[C@@H]2CC[C@]2(C)C(c4cccnc4)=CC[C@@H]32)C1 [abiraterone acetate]
- ATP depletion at high concentrations of inhibitors of steroidogenesis (H295R cells [1]; H295R cells): enhanced ATP depletion

Compound: NC(=NCc1ccccc1)NC(=O)c1nc(Cl)c(N)nc1N [benzamil]
- doxorubicin accumulation (MDR1): did not increase doxorubicin accumulation

Compound: CCCCC/C=C\C/C=C\CCCCCCCC(=O)O[C@H]1CC[C@@]2(C)C(=CC[C@H]3[C@@H]4CC[C@H]([C@H](C)CCCC(C)C)[C@@]4(C)CC[C@@H]32)C1 [cholesterol linoleate]
- effect on ATP depletion by ATR-101 (H295R cells [1]; H295R cells cultured with the compound together with ATR-101, 24 h): did not prevent
- effect on cholesterol accumulation caused by ATR-101 (H295R cells [2]; H295R cells cultured with the compound together with ATR-101, 4 h or 24 h): did not prevent the accumulation of cellular cholesterol

Compound: COc1ccc(Cl)cc1C(=O)NCCc1ccc(S(=O)(=O)NC(=O)NC2CCCCC2)cc1 [glibenclamide]
- cholesterol efflux, compound alone (H295R cells [3]; 4 h): blocked cholesterol efflux
- ATP level in combination with ATR-101 versus separately (H295R cells [1]; H295R cells, 4 h): did not cause a larger than additive reduction in the ATP levels; also recorded: did not increase the efficiency of ATP depletion
- ATP level, compound alone (H295R cells [1]; H295R cells, 4 h): did not reduce the ATP level
- cholesterol level (filipin III binding), compound alone (H295R cells [2]; H295R cells): lack of cholesterol accumulation
- cholesterol level (filipin III binding), compound alone (H295R cells [2]; H295R cells, listed as Glibenclamide): did not cause cholesterol accumulation

Compound: CC(=O)N1CCN(c2ccc(OCC3COC(Cn4ccnc4)(c4ccc(Cl)cc4Cl)O3)cc2)CC1 (stereo not shown) [ketoconazole]
- ATP depletion at high concentrations of inhibitors of steroidogenesis (H295R cells [1]; H295R cells): enhanced ATP depletion

Compound: CC(C)CCC[C@@H](C)[C@H]1CC[C@H]2[C@@H]3CCC4=CC(=NO)CC[C@]4(C)[C@H]3CC[C@]12C [olesoxime]
- effect on the inhibition of cholesterol efflux by ATR-101 (H295R cells [3]; together with ATR-101, listed as Olesoxime): no detectable effect on the inhibition of cholesterol efflux
- effect on ATP depletion by ATR-101 (H295R cells [1]; [5]): reduced ATP depletion by ATR-101
- effect on ATP depletion by ATR-101 (H295R cells [1]; [6]): reduced ATP depletion by ATR-101

Compound: COc1ccc(CCN(C)CCCC(C#N)(c2ccc(OC)c(OC)c2)C(C)C)cc1OC (stereo not shown) [verapamil]
- ATP level, compound alone (H295R cells [1]; H295R cells, 4 h): did not reduce the ATP levels
- cholesterol level (filipin III binding), compound alone (H295R cells [2]; H295R cells): increased the level of cholesterol in intracellular membranes; also recorded: caused cholesterol accumulation
- cortisol secretion, compound alone (H295R cells [4]; cortisol in medium, 4 h or time course): inhibited cortisol secretion

Compound: Cc1c(C)c2c(c(C)c1O)CC[C@@](C)(CCC[C@H](C)CCC[C@H](C)CCCC(C)C)O2 [α-tocopherol]
- effect on the inhibition of cholesterol efflux by ATR-101 (H295R cells [3]; together with ATR-101): did not restore cholesterol efflux
- effect on ATP depletion by ATR-101 (H295R cells [1]; [5]): restored normal or nearly normal ATP levels
- effect on ATP depletion by ATR-101 (H295R cells [1]; [6]): restored the ATP level
- effect on the inhibition of cortisol secretion by ATR-101 (H295R cells [4]; 40 μM of the compound together with ATR-101, 4 h): neither compound prevented the inhibition of cortisol secretion

Compound: rhodamine-123
- ATP level in combination with ATR-101 versus separately (H295R cells [1]; H295R cells, 4 h): larger than additive reductions in the ATP levels
- ATP level in combination with ATR-101 versus separately (H295R cells [1]; H295R cells, 4 h, listed as rhodamine 123): caused ATP depletion at concentrations that did not deplete ATP individually
- fold lower concentration that reduced the ATP level in combination than required separately (H295R cells [1]; H295R cells, ATR-101 and rhodamine-123 in combination, 4 h): 5 fold
